According to ChEMBL document CHEMBL4627246, “Pyroglutamide-Based P2X7 Receptor Antagonists Targeting Inflammatory Bowel Disease” (J Med Chem, 2020):

Experiments:
Assay type in all cases: cell-based
CCRF-CEM = experiment: Cytotoxicity against human CCRF-CEM cells assessed as effect on cell growth at 10 uM incubated for 48 hrs by sulforhodamine B assay
MDA-MB-231 = experiment: Cytotoxicity against human MDA-MB-231 cells assessed as effect on cell growth at 10 uM incubated for 48 hrs by sulforhodamine B assay; settings: mda-mb-231, 48 h
M14 = experiment: Cytotoxicity against human M14 cells assessed as effect on cell growth at 10 uM incubated for 48 hrs by sulforhodamine B assay; settings: m14, 48 h
RPMI-8226 = experiment: Cytotoxicity against human RPMI8226 cells assessed as effect on cell growth at 10 uM incubated for 48 hrs by sulforhodamine B assay; settings: rpmi-8226, 48 h
CAKI-1 = experiment: Growth inhibition of human Caki1 cells assessed as growth percentage at 10 uM incubated for 48 hrs by sulforhodamine B assay; settings: caki-1, 48 h
NCI-H322M = experiment: Cytotoxicity against human NCI-H322M cells assessed as effect on cell growth at 10 uM incubated for 48 hrs by sulforhodamine B assay
HCT-15 = experiment: Cytotoxicity against human HCT15 cells assessed as effect on cell growth at 10 uM incubated for 48 hrs by sulforhodamine B assay; settings: hct-15, 48 h
ACHN = experiment: Cytotoxicity against human ACHN cells assessed as effect on cell growth at 10 uM incubated for 48 hrs by sulforhodamine B assay
HL-60(TB) = experiment: Cytotoxicity against human HL-60(TB) cells assessed as effect on cell growth at 10 uM incubated for 48 hrs by sulforhodamine B assay
U-251 = experiment: Cytotoxicity against human U251 cells assessed as effect on cell growth at 10 uM incubated for 48 hrs by sulforhodamine B assay; settings: u-251, 48 h
SNB-75 = experiment: Cytotoxicity against human SNB75 cells assessed as effect on cell growth at 10 uM incubated for 48 hrs by sulforhodamine B assay; settings: snb-75, 48 h
OVCAR-4 = experiment: Cytotoxicity against human OVCAR4 cells assessed as effect on cell growth at 10 uM incubated for 48 hrs by sulforhodamine B assay; settings: ovcar-4, 48 h
IGROV-1 = experiment: Cytotoxicity against human IGROV1 cells assessed as effect on cell growth at 10 uM incubated for 48 hrs by sulforhodamine B assay; settings: igrov-1, 48 h
HOP-92 = experiment: Cytotoxicity against human HOP92 cells assessed as effect on cell growth at 10 uM incubated for 48 hrs by sulforhodamine B assay; settings: hop-92, 48 h
NCI-H23 = experiment: Cytotoxicity against human NCI-H23 cells assessed as effect on cell growth at 10 uM incubated for 48 hrs by sulforhodamine B assay; settings: nci-h23, 48 h
SF-268 = experiment: Cytotoxicity against human SF268 cells assessed as effect on cell growth at 10 uM incubated for 48 hrs by sulforhodamine B assay; settings: sf-268, 48 h
PC-3 = experiment: Cytotoxicity against human PC3 cells assessed as effect on cell growth at 10 uM incubated for 48 hrs by sulforhodamine B assay; settings: pc-3, 48 h
Malme-3M = experiment: Cytotoxicity against human MALME-3M cells assessed as effect on cell growth at 10 uM incubated for 48 hrs by sulforhodamine B assay
SW-620 = experiment: Cytotoxicity against human SW620 cells assessed as effect on cell growth at 10 uM incubated for 48 hrs by sulforhodamine B assay; settings: sw-620, 48 h
MOLT-4 = experiment: Cytotoxicity against human MOLT4 cells assessed as effect on cell growth at 10 uM incubated for 48 hrs by sulforhodamine B assay; settings: molt-4, 48 h

Measured: Activity

COc1ccc(CN2C(=O)CC[C@H]2C(=O)NCCc2ccccc2)cc1
Non-Toxic: all assays above

COC(=O)[C@@H]1C/C(=C\NCc2ccc(Cl)cc2Cl)C(=O)N1C(=O)OC
Non-Toxic: all assays above

O=C(NCc1ccc(Cl)cc1Cl)[C@@H]1CCC(=O)N1c1cscn1
Non-Toxic: all assays above

CCCCCCN1C(=O)[C@@H]2C/C(=C\N(C)C)C(=O)N2C1N(C)C (stereo not given in full)
Non-Toxic: all assays above

COc1cc(CNC(=O)[C@@H]2CCC(=O)N2)cc(OC)c1OC
Non-Toxic: all assays above

O=C(NCC1CCCCC1)[C@@H]1CCC(=O)N1c1ccccc1
Non-Toxic: all assays above

O=C(NCCc1ccccc1)[C@@H]1CCC(=O)N1Cc1ccc(Br)cc1
Non-Toxic: all assays above

O=C(NCCc1ccccc1)[C@@H]1CCC(=O)N1Cc1ccc(Cl)cc1Cl
Non-Toxic: all assays above

O=C(NCc1ccc(Cl)cc1Cl)[C@@H]1CCC(=O)N1c1ccc(Cl)cc1
Non-Toxic: all assays above
